The values below come from article PMC7618104, “The GLP-1 analogue, exendin-4, improves bone material properties and strength through a central relay in ovariectomized mice” (American journal of physiology. Endocrinology and metabolism, 2025).

Assay [1] concerns ovariectomized BALB/c mice. In words: Tissue material strength of femur (from peak bending moment and geometry). It is filed as in vivo, mouse (BALB/cJRj, female). The following applies: 28 days, vs OVX+vehicle, n=8. The procedure: (§1) Eight animals were randomly assigned to each group.
The whole-bone strength of right femurs was assessed by 3-point bending in accordance with published guidelines ([34]). Three-point bending strength was measured with a constant span length of 10 mm. Bones were tested in the antero-posterior axis with the posterior surface facing upward, centered on the support and the pressing force was applied vertically to the midshaft of the bone. Each bone was tested fully hydrated and at room temperature with a loading speed of 2 mm.min^-1 until failure with a 500 N load cell on an Instron 5942 device (Instron, Elancourt, France) and the load-displacement curve was recorded at a 100 Hz rate by the Bluehill 3 software (Instron). Ultimate load, ultimate displacement, stiffness and work to fracture were calculated as indicated in ([34]). The yield point was determined as the point at which a regression line that represents a 10% loss in stiffness crosses the load-displacement curve. Post-yield displacement was computed as the displacement between yielding and fracture. Peak bending moment was calculated as one-half the ultimate load multiplied by one-half the span length ([34]). The peak bending moment is related to bone tissue material properties and bone midshaft geometry by the following equation: M=σb×IML/cAP […]

Assay [2] deals with ovariectomized BALB/c mice. In words: Bone ECM material evaluation by infrared microspectroscopy, midshaft femur. The class given is in vivo, mouse (BALB/cJRj, female). The following applies: 28 days, n=8. The procedure:
as §1
Distal halves of the right femur were embedded undecalcified in pMMA after dehydration and infiltration. One micrometer-thick cross-section of the midshaft femur was cut with an ultramicrotome (Leica EM UC7, Leica microsystems, Nanterre, France) and deposited on BaF2 windows. Spectral analysis was performed, using a Bruker Hyperion 3000 infrared microscope coupled to a Bruker Vertex 70 spectrometer equipped with a single element mercury cadmium telluride (MCT) detector, between double calcein labels, as indicator of bone formation site. Mid-infrared spectra were recorded at a resolution of 4 cm^-1 (Spectral range 850–2000 cm^-1), with 32 accumulations in transmission mode. Background spectra were collected under identical conditions from the same BaF2 windows at the beginning and end of each experiment to ensure instrument stability. Post-processing was performed using Matlab R2023b (The Mathworks, Natick, CA) and included Mie scattering correction, pMMA subtraction, normalization and denoising (Savitzky-Golay algorithm, degree 2, span 9) prior to second derivative spectroscopy and curve fitting routines as previously reported in detail ([35]). A signal-to-noise ratio was computed in the region 1850-2000 cm^-1 to ensure proper denoising and quality of FTIR spectra for subsequent second derivative and curve fitting. Bone ECM material parameters were: Phosphate/Amide ratio (area ratio of v1,v3 phosphate and amide I); mineral crystallinity/maturity (XST, area ratio of subbands located at subbands ~1030 cm^-1 and ~1020 cm^-1), carbonate/phosphate ratio (area ratio of v2 carbonate and v1,v3 phosphate), and collagen maturity (intensity ratio of subbands located at 1660 cm^-1/1690 cm^-1) ([35]).

For assay [3], the system named is mouse bone marrow-derived mesenchymal stem cell (BMMSC) cultures. In words: Bone marrow-derived mesenchymal stem cell osteogenic differentiation. It is filed as cell-based, mouse (BALB/cJRj). The settings on record: 1 nM exendin-4, osteogenic medium, n = 5 independent experiments. As to the method:
Femurs and tibias were isolated from 12-week-old female BALB/c mice (BALB/cJRj; Janvier Labs, Saint-Berthevin, France). Bones were rapidly dissected and cleared of soft tissue. The distal epiphyses were removed, and the marrow cavities were flushed with sterile PBS to collect bone marrow cells. Cells were suspended in growth medium composed of α-MEM supplemented with 10% fetal bovine serum, 100 U/mL penicillin-streptomycin, and 0.25 μL/mL Fungizone (Thermo Fisher Scientific), and seeded into 6-well plates at a density of 2.5 × 10^6 cells/well. Cultures were maintained at 37°C in a humidified incubator with 5% CO2. Cells remained undisturbed for 5 days to promote adherence. […]
On day 14, cells were washed with PBS and subjected to three freeze-thaw cycles. […] Enzymatic activity was measured using the fluorescent substrate 4-methylumbelliferyl phosphate (Sigma-Aldrich) as previously described ([38]).
On day 21, cells were fixed with 3.7% (w/v) formaldehyde in PBS for 10 min, rinsed with PBS, and stained with 1.5% (w/v) Alizarin Red S for 5 min. […] Bound dye was extracted using 10% acetic acid, neutralized with 10% ammonium hydroxide, and absorbance was measured at 550 nm using a spectrophotometer. […]

For the substance exendin-4 [Ex-4], the “increase in tissue material strength” value in assay [1] (icv Ex-4 70 pmol/day, p=0.005) is 9%; in assay [1] (s.c. Ex-4 ~700 pmol/day, p=0.043), 11%. For the same substance, the “increase in collagen maturity (1660/1690 cm^-1 subband ratio)” value stood at 22% in assay [2] (icv Ex-4 70 pmol/day, OVX, p<0.001) and 18% in assay [2] (s.c. Ex-4 ~700 pmol/day, vs OVX+vehicle, p=0.005). Further, the “bone mineral (material level)” value in assay [2] (s.c. Ex-4 ~700 pmol/day, OVX) is reported as “not affected”. Besides, the “alkaline phosphatase (ALP) activity” value in assay [3] (day 14) is recorded as “did not result in any significant increase”. Also, the “extracellular matrix mineralization (Alizarin Red S)” value in assay [3] (day 21) is listed as “did not result in any significant increase”.
